Measurements: PubChem BioAssay (NCI)
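Protocol summary: plate cells (96-well), add compound at 5 concentrations, incubate 48 h, interpolate endpoints linearly. Abbreviation: GI50, concentration required for 50% inhibition of growth. TGI marks complete inhibition of growth.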

Assays:
Test in all cases: DTP human tumour cell line panel, 48 h
NCI/ADR-RES ovarian = test system: NCI/ADR-RES ovarian
NCI-H522 lung = test system: NCI-H522 lung
HOP-92 NSCLC = test system: HOP-92 NSCLC
BT-549 breast = test system: BT-549 breast
U251 CNS = test system: U251 CNS
HCT-15 colon = test system: HCT-15 colon
OVCAR-3 ovarian = test system: OVCAR-3 ovarian
CCRF-CEM leukemia = test system: CCRF-CEM leukemia
MCF7 breast = test system: MCF7 breast
SK-MEL-2 melanoma = test system: SK-MEL-2 melanoma

Structure (SMILES) | TGI (NCI/ADR-RES ovarian) [µM] | TGI (NCI-H522 lung) [µM] | TGI (HOP-92 NSCLC) [µM] | TGI (BT-549 breast) [µM] | TGI (U251 CNS) [µM] | TGI (HCT-15 colon) [µM] | TGI (OVCAR-3 ovarian) [µM] | TGI (CCRF-CEM leukemia) [µM] | TGI (MCF7 breast) [µM] | TGI (SK-MEL-2 melanoma) [µM] | GI50 (NCI/ADR-RES ovarian) [µM] | GI50 (NCI-H522 lung) [µM] | GI50 (HOP-92 NSCLC) [µM] | GI50 (BT-549 breast) [µM] | GI50 (U251 CNS) [µM] | GI50 (HCT-15 colon) [µM] | GI50 (OVCAR-3 ovarian) [µM] | GI50 (CCRF-CEM leukemia) [µM] | GI50 (MCF7 breast) [µM] | GI50 (SK-MEL-2 melanoma) [µM]
NC(CO)C(=O)NCC(=O)O (stereo not drawn) | > 100 | > 100 | > 100 | > 100 | > 100 | > 100 | > 100 | > 100 | > 100 | > 100 | – | – | – | – | – | – | – | – | – | –
Oc1c(CNCCNCc2cc(Cl)cc(Cc3ccccc3)c2O)cc(Cl)cc1Cc1ccccc1 | 18.3 | 25.6 | 23.9 | 28 | 14.4 | 14.9 | 31.1 | 24.4 | 47.7 | 23.9 | 0.364 | 0.546 | 2.68 | 4.26 | 0.297 | 0.139 | 0.428 | 0.127 | 0.291 | 1.82
Oc1ccccc1C=Nc1ccccc1N=Cc1ccccc1O.[Cu+2] | 8.38 | 12.3 | 8.9 | 11.9 | 14 | 24.8 | 14.4 | > 100 | 14.1 | 19.5 | 2.25 | 2.55 | 1.03 | 3.24 | 3.4 | 5.81 | 3.35 | 4.16 | 2.34 | 5.81
N=C(N)SCc1ccc([N+](=O)[O-])cc1[N+](=O)[O-] | 89 | 3.12 | 9.91 | 28.6 | > 100 | 19.4 | 15.2 | > 100 | 16.9 | 16.6 | 23 | 1.48 | 2.4 | 7.35 | 19.2 | 5.01 | 4.54 | 3.77 | 2.04 | 4.5
COc1ccc2nccc(/C=C/c3ccnc4ccc(OC)cc34)c2c1 | > 100 | 89.2 | > 56.9 | > 100 | > 100 | > 100 | > 100 | > 53.3 | > 38.5 | > 78.4 | > 100 | 26.9 | 8.11 | > 63.4 | > 100 | > 62.8 | > 92 | > 38.9 | 2.39 | > 53.6
COc1cc2c(cc1O)C(c1cc(O)c(O)c(OC)c1)C(O)(C(=O)O)C(CO)C2O (stereo not drawn) | > 100 | > 100 | > 100 | > 100 | > 100 | > 100 | > 100 | 22.7 | 42.5 | > 100 | – | – | – | – | – | – | – | – | – | –
NCCN1C(=O)c2ccccc2C1(O)c1ccc(Cl)cc1 (stereo not drawn) | > 100 | 27.9 | 34.4 | > 100 | 29.6 | > 100 | > 100 | 57 | 32.6 | 30.8 | – | – | – | – | – | – | – | – | – | –
CC12CCC(O)CC1=CCC1C2CCC2(C)C(c3cccnc3)=CCC12 (stereo not drawn) | > 100 | > 100 | > 100 | > 100 | > 100 | > 100 | > 100 | > 100 | > 100 | > 100 | > 100 | > 100 | 43 | > 100 | 70.1 | > 100 | > 100 | > 100 | > 100 | > 100
CC(OC(=O)N(N(CCCl)S(C)(=O)=O)S(C)(=O)=O)c1ccc([N+](=O)[O-])cc1 (stereo not drawn) | > 100 | > 100 | > 100 | > 100 | > 100 | > 100 | > 100 | 15.9 | > 100 | > 100 | 35.4 | 51.4 | > 100 | 33.8 | 42.5 | > 100 | 42.5 | 0.179 | 58 | > 100
CN(C)CCNc1nc2ccccc2c2occc12 | > 100 | > 100 | > 100 | > 100 | > 100 | > 100 | > 100 | > 100 | > 100 | > 100 | 51.8 | 62.3 | 54.1 | > 100 | 45.3 | 30.1 | 97.2 | 20.9 | 32.4 | 33.8
CC(=O)c1ccc2c(c1)N(CCCN(C)C)c1ccccc1S2 | 28.3 | 34.1 | 53.7 | 25.8 | 32.1 | 31.2 | 31.4 | 47.3 | 34.5 | 35.7 | 13.6 | 16.2 | 11.3 | 12.7 | 15.1 | 16 | 16.5 | 18.5 | 16.6 | 18.1
COc1ccc(Oc2cc(NCCC(F)(F)F)c3ncc(-c4ccc(C(=O)NC5CC5)c(C)c4)n3n2)c(F)c1F | > 80.6 | > 64.8 | 39.3 | 42.1 | 57.8 | > 100 | > 91.9 | > 100 | > 100 | 26.6 | 0.198 | 0.381 | 4.54 | 2.14 | 0.597 | < 0.01 | 8.67 | – | 0.822 | 0.552
Nc1ncnc2nn(C3OC(CO)C(O)C3O)nc12 (stereo not drawn) | > 86.8 | > 100 | > 100 | > 100 | > 81.6 | 45.3 | > 41.1 | > 67 | > 62.3 | 17.5 | – | – | – | – | – | – | – | – | – | –
O=c1cc(O)c2c(O)cc(O)cc2o1 | > 100 | > 100 | > 100 | > 100 | > 100 | > 100 | > 100 | > 100 | > 100 | > 100 | – | – | – | – | – | – | – | – | – | –
Nc1nc(-c2cc(-c3cccc4ccccc34)nc(N)n2)cc(-c2cccc3ccccc23)n1 | > 100 | > 100 | > 100 | > 100 | > 100 | > 100 | > 100 | > 100 | > 100 | > 100 | – | – | – | – | – | – | – | – | – | –
Cc1cc(O)cc(C)c1/C=C/c1cncc(C(=O)OC(C)(C)C)c1 | > 25 | 24.8 | 18.8 | > 25 | > 25 | > 25 | > 25 | > 25 | > 25 | > 25 | 14.6 | 7.95 | 4.01 | > 20.8 | 14.9 | 11.5 | 17 | 3.13 | 11.8 | > 22.1
CNCCCn1c2c(c3ccc(F)cc3c1=O)C(=O)c1cc(OC)cnc1-2 | 9.51 | 1.08 | 3.15 | 4.84 | 0.46 | 3.86 | 1.39 | 10.6 | 3.43 | 7.37 | 0.431 | 0.0569 | 0.371 | 0.577 | 0.11 | 0.25 | 0.263 | 0.255 | 0.0344 | 1.6
Cn1c2ccccc2c2nnc(NNCc3ccccn3)nc21 | 3.22 | 18.1 | 5.91 | 14.9 | 14.4 | 17.9 | 7.12 | 12.7 | 14.5 | 33 | 0.276 | 0.546 | 0.279 | 0.729 | 0.446 | 0.328 | 0.325 | 0.357 | 0.372 | 5.17
C[C@]12CC[C@@H]3c4ccc(O)cc4CC[C@H]3[C@@H]1CC[C@@H]2NS(=O)(=O)c1ccc2ccccc2c1 | 8 | – | 7.14 | 8.59 | 15.4 | 10.5 | 7.3 | > 100 | 9.48 | 7.94 | 2.61 | – | 1.83 | 2.92 | 3.6 | 2.89 | 2.63 | 2.94 | 3.36 | 2.75
COC(=O)[C@@H](OC)[C@@H]1Cc2cc3cc(OC4CC(OC5CC(O)C(O)C(C)O5)C(O)C(C)O4)c(C)c(O)c3c(O)c2C(=O)[C@H]1OC1CC(OC2CC(OC3CC(C)(O)C(O)C(C)O3)C(O)C(C)O2)C(O)C(C)O1 (stereo partly drawn) | > 16.5 | 0.172 | 0.119 | 0.0974 | > 16.5 | > 16.5 | – | > 7.4 | > 16.5 | 0.0777 | 0.688 | 0.0358 | 0.0365 | 0.0186 | 0.0385 | 0.0575 | – | 0.035 | 0.0275 | 0.0355
O=C(Nc1cccc(-n2cc(-c3ccncc3)c(-c3ccc(O)c(Cl)c3)n2)c1)c1ccc(Cl)c(Cl)c1 | 65.5 | 74.4 | 28.4 | > 100 | 34.2 | > 100 | – | > 100 | > 100 | 38.6 | 5.26 | 4.13 | 2.33 | 10.4 | 4.03 | 3.2 | – | 4.08 | 4.08 | 11.6
